Measured values taken from ChEMBL document CHEMBL2321759, “A new target for an old drug: identifying mitoxantrone as a nanomolar inhibitor of PIM1 kinase via kinome-wide selectivity modeling” (J Med Chem, 2013).
Structures can show the parent of a compound that is named as a salt. Active and inactive are the calls of the source. The rule behind the calls is not given here.

Legend:
[1] = target: Platelet-derived growth factor receptor beta (Mus musculus, UniProt P05622); test: Inhibition of mouse PDGFRbeta expressed in SF9 insect cells by TR-FRET assay
MV4-11 [2] = test: Effect on total PIM1 level in human MV411 cells at 10 to 100 nM after 12 hrs by Western blotting analysis; assay type: functional, cell-based
[3] = target: T1, Serine/threonine-protein kinase pim-1 (Homo sapiens, UniProt P11309); test: Inhibition of PIM1-mediated BAD phosphorylation in human K562 cells at 0.1 to 30 uM after 12 hrs by Western blotting analysis; assay type: cell-based
Target sequence in this assay (P11309 whole entry, looked up): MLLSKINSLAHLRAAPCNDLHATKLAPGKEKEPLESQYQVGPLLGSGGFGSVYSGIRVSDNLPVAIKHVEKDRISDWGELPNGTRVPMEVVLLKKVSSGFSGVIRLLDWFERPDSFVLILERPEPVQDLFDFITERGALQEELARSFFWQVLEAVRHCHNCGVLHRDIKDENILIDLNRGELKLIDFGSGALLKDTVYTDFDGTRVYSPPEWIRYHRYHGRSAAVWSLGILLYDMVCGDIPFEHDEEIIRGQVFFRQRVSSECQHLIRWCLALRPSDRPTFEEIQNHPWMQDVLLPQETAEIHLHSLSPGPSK

MV4-11 [4] = test: Effect on total BAD level in human MV411 cells at 10 to 100 nM after 12 hrs by Western blotting analysis; assay type: functional, cell-based
[5] = target: T1, Serine/threonine-protein kinase pim-1; test: Inhibition of PIM1-mediated BAD phosphorylation in human MV411 cells at 100 nM after 12 hrs by Western blotting analysis; assay type: cell-based; settings: MV4-11
Target sequence in this assay (P11309 whole entry, looked up): as above

[6] = target: T1, Serine/threonine-protein kinase pim-1; test: Inhibition of PIM1-mediated BAD phosphorylation in human MV411 cells after 12 hrs by Western blotting analysis; assay type: cell-based; settings: MV4-11
Target sequence in this assay (P11309 whole entry, looked up): as above

[7] = target: T1, Serine/threonine-protein kinase pim-1; test: Inhibition of PIM1-mediated BAD phosphorylation in human K562 cells after 12 hrs by Western blotting analysis; assay type: cell-based
Target sequence in this assay (P11309 whole entry, looked up): as above

[8] = target: T2, Tyrosine-protein kinase BTK (Homo sapiens, UniProt Q06187); test: Inhibition of BTK (unknown origin) using [gamma33P]ATP assessed as residual activity at 1 uM after 120 mins by radiometric assay
[9] = target: RAC-alpha serine/threonine-protein kinase (Homo sapiens) (UniProt P31749); test: Inhibition of AKT1 (unknown origin) using [gamma33P]ATP assessed as residual activity at 1 uM after 120 mins by radiometric assay
[10] = target: Serine/threonine-protein kinase Chk2 (Homo sapiens) (UniProt O96017); test: Inhibition of CHK2 (unknown origin) using [gamma33P]ATP assessed as residual activity at 1 uM after 120 mins by radiometric assay
[11] = target: T1, Serine/threonine-protein kinase pim-1; test: Inhibition of PIM1 (unknown origin) using [gamma33P]ATP assessed as residual activity at 1 uM after 120 mins by radiometric assayATP
Target sequence in this assay (P11309 whole entry, looked up): as above

[12] = target: Casein kinase II subunit alpha' (Homo sapiens) (UniProt P19784); test: Inhibition of CK2alpha2 (unknown origin) using [gamma33P]ATP assessed as residual activity at 1 uM after 120 mins by radiometric assay
[13] = target: T1, Serine/threonine-protein kinase pim-1; test: Inhibition of recombinant PIM1 (unknown origin) expressed in Escherichia coli BL21(DE3) after 1 hr by HTRF assay
Target sequence in this assay (P11309 whole entry): as the sequence (P11309 whole entry, looked up) above

Casein kinase 2 = Casein kinase 2 (Homo sapiens, UniProt P67870+P68400+P19784+Q8NEV1); test: Inhibition of human recombinant casein kinase 2 using [gamma-32P] ATP; assay type: protein assay
[14] = target: T2, Tyrosine-protein kinase BTK; test: Inhibition of BTK (unknown origin)
[15] = Inhibition of Mycobacterium tuberculosis protein kinase B

T2 sequence (Q06187 whole entry): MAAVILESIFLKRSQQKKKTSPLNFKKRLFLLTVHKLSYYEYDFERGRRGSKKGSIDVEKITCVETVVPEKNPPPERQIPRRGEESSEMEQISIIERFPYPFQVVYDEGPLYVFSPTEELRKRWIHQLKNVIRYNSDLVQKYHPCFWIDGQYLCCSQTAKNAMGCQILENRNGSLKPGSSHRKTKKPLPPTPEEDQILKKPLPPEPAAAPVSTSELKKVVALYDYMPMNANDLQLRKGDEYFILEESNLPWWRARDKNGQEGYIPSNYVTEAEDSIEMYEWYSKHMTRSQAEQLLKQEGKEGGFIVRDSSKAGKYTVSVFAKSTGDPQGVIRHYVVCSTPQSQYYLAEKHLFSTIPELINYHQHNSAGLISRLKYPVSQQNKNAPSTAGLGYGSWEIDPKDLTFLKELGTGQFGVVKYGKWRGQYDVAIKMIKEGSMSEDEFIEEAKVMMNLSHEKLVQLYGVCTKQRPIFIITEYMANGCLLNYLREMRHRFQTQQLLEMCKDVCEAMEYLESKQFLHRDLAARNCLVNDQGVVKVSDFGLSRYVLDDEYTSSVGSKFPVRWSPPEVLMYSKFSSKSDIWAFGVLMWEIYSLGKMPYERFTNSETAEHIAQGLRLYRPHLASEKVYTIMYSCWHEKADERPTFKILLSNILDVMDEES
Serine/threonine-protein kinase Chk2 (Homo sapiens), sequence (O96017 whole entry): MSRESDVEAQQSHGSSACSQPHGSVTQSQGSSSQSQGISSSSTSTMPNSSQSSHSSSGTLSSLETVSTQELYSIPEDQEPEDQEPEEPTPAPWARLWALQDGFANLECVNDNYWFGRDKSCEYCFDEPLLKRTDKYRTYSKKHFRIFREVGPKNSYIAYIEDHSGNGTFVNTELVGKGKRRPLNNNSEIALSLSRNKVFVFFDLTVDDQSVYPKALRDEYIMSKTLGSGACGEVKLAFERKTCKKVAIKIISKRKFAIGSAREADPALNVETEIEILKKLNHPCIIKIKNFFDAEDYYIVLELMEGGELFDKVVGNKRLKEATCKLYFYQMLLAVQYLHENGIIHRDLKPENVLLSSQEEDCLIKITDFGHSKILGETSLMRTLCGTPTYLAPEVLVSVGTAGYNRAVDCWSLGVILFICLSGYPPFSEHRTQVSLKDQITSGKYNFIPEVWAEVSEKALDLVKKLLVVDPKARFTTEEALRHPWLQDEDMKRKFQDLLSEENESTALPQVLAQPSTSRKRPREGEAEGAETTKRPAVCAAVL
Casein kinase II subunit alpha' (Homo sapiens), sequence (P19784 whole entry, looked up): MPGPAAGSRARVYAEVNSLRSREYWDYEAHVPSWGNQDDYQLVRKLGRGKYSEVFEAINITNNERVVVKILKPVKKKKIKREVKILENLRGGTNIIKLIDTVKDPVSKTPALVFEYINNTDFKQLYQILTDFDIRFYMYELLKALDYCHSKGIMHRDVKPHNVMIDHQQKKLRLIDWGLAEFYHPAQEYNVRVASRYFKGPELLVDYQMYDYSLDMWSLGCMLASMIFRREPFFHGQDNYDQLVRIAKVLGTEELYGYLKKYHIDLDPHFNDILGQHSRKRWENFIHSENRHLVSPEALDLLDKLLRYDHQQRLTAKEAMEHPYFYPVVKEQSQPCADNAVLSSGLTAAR
RAC-alpha serine/threonine-protein kinase (Homo sapiens), sequence (P31749 whole entry): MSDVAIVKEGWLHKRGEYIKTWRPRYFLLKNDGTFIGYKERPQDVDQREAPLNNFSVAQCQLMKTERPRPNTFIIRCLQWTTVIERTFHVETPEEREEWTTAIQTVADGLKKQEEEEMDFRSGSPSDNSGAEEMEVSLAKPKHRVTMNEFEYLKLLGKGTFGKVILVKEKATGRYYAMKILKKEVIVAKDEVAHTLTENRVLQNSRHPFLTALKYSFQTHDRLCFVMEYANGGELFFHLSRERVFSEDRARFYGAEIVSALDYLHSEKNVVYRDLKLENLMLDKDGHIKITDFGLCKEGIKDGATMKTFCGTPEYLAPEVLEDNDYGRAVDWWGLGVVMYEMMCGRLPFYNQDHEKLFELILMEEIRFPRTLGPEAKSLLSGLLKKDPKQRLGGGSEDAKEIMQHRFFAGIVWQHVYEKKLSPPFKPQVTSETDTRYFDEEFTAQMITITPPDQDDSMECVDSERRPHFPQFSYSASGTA
Platelet-derived growth factor receptor beta, sequence (P05622 whole entry): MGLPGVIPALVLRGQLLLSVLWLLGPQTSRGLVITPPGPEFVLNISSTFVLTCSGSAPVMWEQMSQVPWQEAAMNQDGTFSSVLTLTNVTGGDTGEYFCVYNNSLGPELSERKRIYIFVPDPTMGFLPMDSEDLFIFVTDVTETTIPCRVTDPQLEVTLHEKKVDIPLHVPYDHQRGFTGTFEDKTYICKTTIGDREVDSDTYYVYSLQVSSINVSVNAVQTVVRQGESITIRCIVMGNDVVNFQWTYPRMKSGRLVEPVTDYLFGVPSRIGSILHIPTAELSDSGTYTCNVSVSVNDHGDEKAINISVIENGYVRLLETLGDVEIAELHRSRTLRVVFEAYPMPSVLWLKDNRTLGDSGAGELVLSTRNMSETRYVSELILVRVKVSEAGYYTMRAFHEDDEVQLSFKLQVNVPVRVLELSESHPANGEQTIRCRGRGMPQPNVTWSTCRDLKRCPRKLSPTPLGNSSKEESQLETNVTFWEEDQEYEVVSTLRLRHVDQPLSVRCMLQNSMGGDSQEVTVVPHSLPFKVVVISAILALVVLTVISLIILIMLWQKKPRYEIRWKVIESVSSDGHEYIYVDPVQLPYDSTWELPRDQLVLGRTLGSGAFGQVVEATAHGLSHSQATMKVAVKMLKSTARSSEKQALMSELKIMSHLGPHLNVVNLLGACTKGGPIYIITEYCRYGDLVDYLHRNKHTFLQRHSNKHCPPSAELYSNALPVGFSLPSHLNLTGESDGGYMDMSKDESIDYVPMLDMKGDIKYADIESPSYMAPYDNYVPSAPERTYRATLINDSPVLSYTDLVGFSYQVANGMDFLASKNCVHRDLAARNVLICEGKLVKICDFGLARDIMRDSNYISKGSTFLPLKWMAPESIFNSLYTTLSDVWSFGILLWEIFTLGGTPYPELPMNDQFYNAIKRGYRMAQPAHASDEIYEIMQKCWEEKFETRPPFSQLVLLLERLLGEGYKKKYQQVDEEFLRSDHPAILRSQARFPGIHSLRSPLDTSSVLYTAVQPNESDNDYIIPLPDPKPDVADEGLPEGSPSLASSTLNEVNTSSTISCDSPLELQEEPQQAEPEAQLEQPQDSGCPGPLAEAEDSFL

Question: With CNC(=O)c1cc(Oc2ccc(NC(=O)Nc3ccc(Cl)c(C(F)(F)F)c3)cc2)ccn1 [SORAFENIB] as the compound, how does the IC50 [1] read?
Answer: < 100 nM

Question: Which Activity (MV4-11 [2]) does the source give for O=C1c2c(O)ccc(O)c2C(=O)c2c(NCCNCCO)ccc(NCCNCCO)c21 here?
Answer: inactive

Question: What about the inhibition [3] of the same compound?
Answer: Active

Question: And the Activity (MV4-11 [4])?
Answer: inactive

Question: And the inhibition [5]?
Answer: Active

Question: And the inhibition [6]?
Answer: Dose-dependent effect

Question: And the inhibition [7]?
Answer: Dose-dependent effect

Question: And the Activity [8]?
Answer: 45.9%

Question: And the Activity [9]?
Answer: 109%

Question: What about the Activity [10] of the same compound?
Answer: 59.7%

Question: What about the Activity [11] of the same compound?
Answer: 0.86%

Question: What about the Activity [12] of the same compound?
Answer: 81.8%

Question: Which IC50 [13] does the source give for O=C1c2c(O)ccc(O)c2C(=O)c2c(NCCNCCO)ccc(NCCNCCO)c21 [MITOXANTRONE HYDROCHLORIDE] here?
Answer: 50.9 nM

Question: For O=C1c2c(O)ccc(O)c2C(=O)c2c(NCCNCCO)ccc(NCCNCCO)c21 [MITOXANTRONE], which IC50 (Casein kinase 2) is on record?
Answer: 660 nM

Question: What about the IC50 [14] of the same compound?
Answer: 1000 nM

Question: And the IC50 [15]?
Answer: 800 nM
